Measured values taken from patent US20090227619A1, “Harmine derivatives, intermediates used in their preparations, preparation processes and use therefo” (priority 2003, published 2009).
pIC50: −log10 of the molar value. Like-named read-outs stand apart in the source and are kept apart here.

How the values were obtained:
[1] = system: PLA-801; assay: In vitro cytotoxicity, IC50 by MTT method, PLA-801; assay type: cell-based; conditions: PLA-801 cell strain; read-out: IC50 PLA-801
Summary of the method: (§1)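 MTT viability, 48 h exposure: cells 10^5/ml in RPMI1640 + 10% FBS, 37 °C/5% CO2; MTT 4 h, DMSO solubilisation, A490.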

[2] = system: HepG2; assay: In vitro cytotoxicity, IC50 by MTT method, HepG2; assay type: cell-based, human; conditions: Homo sapiens; HepG2 cell strain; read-out: IC50 HepG2
Summary of the method: as §1

[3] = in vivo; conditions: both, mouse, ip
[4] = system: Kunming mice; conditions: for Death rate: single i.p.
[5] = system: NIH3T3; assay: In vitro cytotoxicity, IC50 by MTT method, NIH3T3; assay type: cell-based; conditions: Mus musculus; NIH3T3 cell strain; read-out: IC50 NIH3T3
Summary of the method: as §1

[6] = system: S180 sarcoma; conditions: S180 sarcoma; for Body weight of the animals, beginning, First time / Body weight of the animals, end, First time / Inhibition rate, First time / Weight of the tumor X ± SD, First time / Body weight of the animals, beginning, Second time / Body weight of the animals, end, Second time / Inhibition rate, Second time: ip × 10qd; for Inhibition rate (%) S180 sarcomata: comparison table 43, in vivo
[7] = system: Hela; assay: In vitro cytotoxicity, IC50 by MTT method, Hela; assay type: cell-based; conditions: Homo sapiens; Hela cell strain; read-out: IC50 Hela
Summary of the method: as §1

[8] = system: CT-DNA; assay: DNA thermal denaturation, determination of ΔTm; assay type: binding; conditions: 20 uM compound, Tm of CT-DNA alone 61° C.
Summary of the method: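 CT-DNA at 15 ug/ml in PE buffer (1 mM Na2HPO4, 0.1 mM EDTA, pH 7.6), heated at 0.5° C./min from 25 to 95° C. Tm taken as hyperchromic transition mid-point; ΔTm = Tm of drug-DNA complex minus Tm of DNA alone, mean of three runs.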

[9] = system: BGC-823; assay: In vitro cytotoxicity, IC50 by MTT method, BGC-823; assay type: cell-based; conditions: Homo sapiens, BGC-823; BGC823 cell strain; read-out: IC50 BGC823
Summary of the method: as §1

[10] = system: Lewis lung cancer; conditions: Lewis lung cancer; for Body weight of the animals, end, First time / Body weight of the animals, end, Second time: ip × 10qd; for Inhibition rate (%) Lewis cancer: comparison table 43, in vivo;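 on all read-outs here: mice implanted subcutaneously in the axilla with Lewis lung tumor cells, treated starting the following day, killed roughly three weeks after implantation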
Text: There was one group of 8 to 10 mice C57BL/6 and Kunming mice for the anti-tumor tests and two groups of mice for negative control.
(3) Sources of tumors: Lewis lung cancer cells and S180 sarcoma in mice, which were sub-cultured and maintained by Pharmacological Center of Shanghai Pharmaceutical Industrial Research Institute.
All samples were weighed and added a small amount of Tween-80 to facilitate dissolution during the experiment, and then 0.5% CMC-Na solution was gradually added to achieve the desired concentration. The volume for experiment was 0.5 ml/20 g mouse.
The medicaments were intraperitoneally administered once a day continuously for 10 days.
For the negative control group, a vehicle of the same volume was intraperitoneally administered once a day continuously for 10 days. For the positive control group, CTX was administered in the dosage of 30 mg/kg once a day continuously for 7 days.
In vivo anti-tumor subcutaneous vaccination in the axilla was employed. Wildly grown tumor source was taken under sterile conditions to form a cell suspension of about 1×10^7 ml by homogenization method. For a corresponding mouse host, the suspension was injected in the axilla in an amount of 0.2 ml/mouse. The next day, the medicaments were administered according to the design of the tests. About three weeks later, all the groups of animals were executed. The tumors were taken from the animals and weighed. The inhibition rate of tumors was calculated according to the following formula:
T: average tumor weight of treated group; C: average tumor weight of negative control group.

[11] = system: Lovo; assay: In vitro cytotoxicity, IC50 by MTT method, Lovo; assay type: cell-based; conditions: Homo sapiens; Lovo cell strain; read-out: IC50 Lovo
Summary of the method: as §1

[12] = system: Bel-7402; assay: In vitro cytotoxicity, IC50 by MTT method, Bel-7402; assay type: cell-based; conditions: Homo sapiens, Bel-7402; Bel7402 cell strain; read-out: IC50 Bel7402
Summary of the method: as §1

[13] = system: CT-DNA; assay: UV absorption spectrum method with CT-DNA; assay type: binding; conditions: CT-DNA 40 ug/ml, compound 20 uM, 37° C. for 2 h, OD at 260 nm
Experimental: Compounds to be tested (20 uM) were added into the PE buffer solution, and its scan curve was identified by the spectrograph at a wavelength of from 200 to 400 nm. CT-DNA (40 ug/ml) and compounds to be tested (20 uM) were added into the PE buffer solution. The mixture was cultured at 37° C. for 2 h, and its scan curve was identified by the UV spectrograph at a wavelength of from 200 to 400 nm. […] After that, the OD value at 260 nm of the scan curve of the medicaments tested and that of the CT-DNA mixture OD value at 260 nm of the scan curve were calculated and compared to determine the influences of the medicaments tested on the UV absorption spectrum of the DNA molecules.

[14] = Solubility (physico-chemical data tables); conditions: qualitative; Table 12, 3,9-disubstituted β-carboline derivatives
[15] = 50% male 50% female mice, 240 mg/kg
[16] = 50% male 50% female mice, 300 mg/kg
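Wherever Death rate is given: acute toxicity in Kunming mice grouped by sex, one intraperitoneal dose at five graded levels in Tween-80 plus 0.5% CMC-Na, deaths monitored over two weeks.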
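Wherever LD50 is given: acute toxicity in Kunming mice grouped by sex, one intraperitoneal dose at five graded levels in Tween-80 plus 0.5% CMC-Na, deaths monitored over two weeks.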
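Wherever MTD is given: acute toxicity in Kunming mice grouped by sex, one intraperitoneal dose at five graded levels in Tween-80 plus 0.5% CMC-Na, deaths monitored over two weeks.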

CCCCn1c2ccccc2c2cc(C(=O)O)ncc21 [Compound 36, 9-butyl-β-carboline-3-carboxylic acid]
pIC50 [1]: 4.05
pIC50 [2]: 3.77
MTD at 2 weeks [3]: > 300 mg/kg
Death rate [4, 15]: 0
Death rate [4, 16]: 30
Death rate ([4]; female mice, 240 mg/kg): 0
Death rate ([4]; female mice, 300 mg/kg): 40
Death rate ([4]; male mice, 240 mg/kg): 0
Death rate ([4]; male mice, 300 mg/kg): 20
pIC50 [5]: 4.70
Body weight of the animals, beginning, First time ([6]; Dosage 50 (mg/ml)): 19.1 g
Body weight of the animals, end, First time ([6]; Dosage 50 (mg/ml)): 24.9 g
Inhibition rate, First time ([6]; Dosage 50 (mg/ml)): 29.96%
Weight of the tumor X ± SD, First time ([6]; Dosage 50 (mg/ml)): 1.87 ± 0.16 g
Body weight of the animals, beginning, Second time ([6]; Dosage 50 (mg/ml)): 18.3 g
Body weight of the animals, end, Second time ([6]; Dosage 50 (mg/ml)): 25.3 g
Inhibition rate, Second time ([6]; Dosage 50 (mg/ml)): 31.11%
Weight of the tumor X ± SD, Second time ([6]; Dosage 50, ip × 10qd): 1.86 ± 0.28 g
Body weight of the animals, beginning, First time ([6]; Dosage 100 (mg/ml)): 19.0 g
Body weight of the animals, end, First time ([6]; Dosage 100 (mg/ml)): 24.5 g
Inhibition rate, First time ([6]; Dosage 100 (mg/ml)): 43.07%
Weight of the tumor X ± SD, First time ([6]; Dosage 100 (mg/ml)): 1.52 ± 0.15 g
Body weight of the animals, beginning, Second time ([6]; Dosage 100 (mg/ml)): 18.7 g
Body weight of the animals, end, Second time ([6]; Dosage 100 (mg/ml)): 25.5 g
Inhibition rate, Second time ([6]; Dosage 100 (mg/ml)): 40.00%
Weight of the tumor X ± SD, Second time ([6]; Dosage 100, ip × 10qd): 1.62 ± 0.12 g
Inhibition rate (%) S180 sarcomata [6]: 43.07%
pIC50 [7]: 4.22
ΔTm ([8]; CT-DNA 15 ug/ml, PE buffer pH 7.6): −1.5 °C
ΔTm ([8]; CT-DNA thermal denaturation): −1.5 °C
pIC50 [9]: 3.92
Body weight of the animals, end, First time ([10]; Dosage 50 (mg/ml)): 25.6 g
Body weight of the animals, end, Second time ([10]; Dosage 50 (mg/ml)): 25.3 g
Body weight of the animals, beginning, First time ([10]; Dosage 50, ip × 10qd): 18.8 g
Inhibition rate, First time ([10]; Dosage 50, ip × 10qd): 31.74%
Weight of the tumor X ± SD, First time ([10]; Dosage 50, ip × 10qd): 2.00 ± 0.28 g
Body weight of the animals, beginning, Second time ([10]; Dosage 50, ip × 10qd): 20.1 g
Inhibition rate, Second time ([10]; Dosage 50, ip × 10qd): 31.69%
Weight of the tumor X ± SD, Second time ([10]; Dosage 50, ip × 10qd): 1.66 ± 0.17 g
Body weight of the animals, end, First time ([10]; Dosage 100 (mg/ml)): 25.2 g
Body weight of the animals, end, Second time ([10]; Dosage 100 (mg/ml)): 25.0 g
Body weight of the animals, beginning, First time ([10]; Dosage 100, ip × 10qd): 19.3 g
Inhibition rate, First time ([10]; Dosage 100, ip × 10qd): 41.98%
Weight of the tumor X ± SD, First time ([10]; Dosage 100, ip × 10qd): 1.70 ± 0.17 g
Body weight of the animals, beginning, Second time ([10]; Dosage 100, ip × 10qd): 20.1 g
Inhibition rate, Second time ([10]; Dosage 100, ip × 10qd): 46.91%
Weight of the tumor X ± SD, Second time ([10]; Dosage 100, ip × 10qd): 1.29 ± 0.13 g
Inhibition rate (%) Lewis cancer [10]: 46.91%
pIC50 [11]: 5.00
pIC50 [12]: 4.05
Influence on the UV absorption of DNA [13]: increase the UV absorption of DNA

O=C(O)c1cc2c3ccccc3n(Cc3ccccc3)c2cn1 [Compound 37, 9-benzyl-β-carboline-3-carboxylic acid]
pIC50 [1]: 4.00
pIC50 [2]: 4.00
LD50 at 2 weeks ([3]; Kunming): 163 mg/kg
Death rate [4, 15]: 100
Death rate [4, 16]: 100
Death rate ([4]; female mice, 240 mg/kg): 100
Death rate ([4]; female mice, 300 mg/kg): 100
Death rate ([4]; male mice, 240 mg/kg): 100
Death rate ([4]; male mice, 300 mg/kg): 100
LD50 ([4]; mouse, in vivo, ip): 142 to 189 mg/kg
pIC50 [5]: 4.30
Solubility [14]: soluble in DMSO
Body weight of the animals, beginning, First time ([6]; Dosage 25 (mg/ml)): 19.6 g
Body weight of the animals, end, First time ([6]; Dosage 25 (mg/ml)): 26.9 g
Inhibition rate, First time ([6]; Dosage 25 (mg/ml)): 23.86%
Weight of the tumor X ± SD, First time ([6]; Dosage 25 (mg/ml)): 2.17 ± 0.18 g
Body weight of the animals, beginning, Second time ([6]; Dosage 25 (mg/ml)): 20.4 g
Body weight of the animals, end, Second time ([6]; Dosage 25 (mg/ml)): 25.1 g
Inhibition rate, Second time ([6]; Dosage 25 (mg/ml)): 24.21%
Weight of the tumor X ± SD, Second time ([6]; Dosage 25, ip × 10qd): 2.16 ± 0.27 g
Body weight of the animals, beginning, First time ([6]; Dosage 50 (mg/ml)): 19.7 g
Body weight of the animals, end, First time ([6]; Dosage 50 (mg/ml)): 26.3 g
Inhibition rate, First time ([6]; Dosage 50 (mg/ml)): 34.39%
Weight of the tumor X ± SD, First time ([6]; Dosage 50 (mg/ml)): 1.87 ± 0.13 g
Body weight of the animals, beginning, Second time ([6]; Dosage 50 (mg/ml)): 20.6 g
Body weight of the animals, end, Second time ([6]; Dosage 50 (mg/ml)): 24.7 g
Inhibition rate, Second time ([6]; Dosage 50 (mg/ml)): 32.98%
Weight of the tumor X ± SD, Second time ([6]; Dosage 50, ip × 10qd): 1.91 ± 0.23 g
Inhibition rate (%) S180 sarcomata [6]: 34.39%
pIC50 [7]: 4.05
pIC50 [9]: 4.30
Body weight of the animals, end, First time ([10]; Dosage 25 (mg/ml)): 24.1 g
Body weight of the animals, end, Second time ([10]; Dosage 25 (mg/ml)): 24.9 g
Body weight of the animals, beginning, First time ([10]; Dosage 25, ip × 10qd): 18.6 g
Inhibition rate, First time ([10]; Dosage 25, ip × 10qd): 27.09%
Weight of the tumor X ± SD, First time ([10]; Dosage 25, ip × 10qd): 1.83 ± 0.17 g
Body weight of the animals, beginning, Second time ([10]; Dosage 25, ip × 10qd): 19.6 g
Inhibition rate, Second time ([10]; Dosage 25, ip × 10qd): 29.24%
Weight of the tumor X ± SD, Second time ([10]; Dosage 25, ip × 10qd): 1.67 ± 0.16 g
Body weight of the animals, end, First time ([10]; Dosage 50 (mg/ml)): 23.9 g
Body weight of the animals, end, Second time ([10]; Dosage 50 (mg/ml)): 24.3 g
Body weight of the animals, beginning, First time ([10]; Dosage 50, ip × 10qd): 18.9 g
Inhibition rate, First time ([10]; Dosage 50, ip × 10qd): 39.04%
Weight of the tumor X ± SD, First time ([10]; Dosage 50, ip × 10qd): 1.53 ± 0.14 g
Body weight of the animals, beginning, Second time ([10]; Dosage 50, ip × 10qd): 19.5 g
Inhibition rate, Second time ([10]; Dosage 50, ip × 10qd): 43.22%
Weight of the tumor X ± SD, Second time ([10]; Dosage 50, ip × 10qd): 1.34 ± 0.14 g
Inhibition rate (%) Lewis cancer [10]: 43.22%
pIC50 [11]: 4.40
pIC50 [12]: 3.96
Influence on the UV absorption of DNA [13]: increase the UV absorption of DNA
